The values below are quoted from earlier work in US9738710B2, “Method of treating a patient for pain by administering an anti-ion channel antibody” (UCB Biopharma SPRL, priority 2009, dated 2017).

The target of data set [1] is T1, hNav1.7 (Homo sapiens, UniProt Q15858). As to conditions: read-out: FRET-based Assay hNav1.7.
In data set [2] the target is T2, hNav1.5 (Homo sapiens, UniProt Q14524). The following applies: read-out: Electrophysiology hNav1.5.
In another data set the target is hNav1.8 (Homo sapiens, UniProt Q9Y5Y9). The following applies: read-out: FRET-based Assay hNav1.8.
Data set [3] addresses T1, hNav1.7. As to conditions: read-out: Electrophysiology hNav1.7.
The target of data set [4] is T2, hNav1.5. The following applies: read-out: FRET-based Assay hNav1.5.
The conditions of data set [5]: neuropathic pain patients (Dworkin, 2002).

Read-outs that look alike come from different tables or passages of the source.

T1 sequence (Q15858 whole entry): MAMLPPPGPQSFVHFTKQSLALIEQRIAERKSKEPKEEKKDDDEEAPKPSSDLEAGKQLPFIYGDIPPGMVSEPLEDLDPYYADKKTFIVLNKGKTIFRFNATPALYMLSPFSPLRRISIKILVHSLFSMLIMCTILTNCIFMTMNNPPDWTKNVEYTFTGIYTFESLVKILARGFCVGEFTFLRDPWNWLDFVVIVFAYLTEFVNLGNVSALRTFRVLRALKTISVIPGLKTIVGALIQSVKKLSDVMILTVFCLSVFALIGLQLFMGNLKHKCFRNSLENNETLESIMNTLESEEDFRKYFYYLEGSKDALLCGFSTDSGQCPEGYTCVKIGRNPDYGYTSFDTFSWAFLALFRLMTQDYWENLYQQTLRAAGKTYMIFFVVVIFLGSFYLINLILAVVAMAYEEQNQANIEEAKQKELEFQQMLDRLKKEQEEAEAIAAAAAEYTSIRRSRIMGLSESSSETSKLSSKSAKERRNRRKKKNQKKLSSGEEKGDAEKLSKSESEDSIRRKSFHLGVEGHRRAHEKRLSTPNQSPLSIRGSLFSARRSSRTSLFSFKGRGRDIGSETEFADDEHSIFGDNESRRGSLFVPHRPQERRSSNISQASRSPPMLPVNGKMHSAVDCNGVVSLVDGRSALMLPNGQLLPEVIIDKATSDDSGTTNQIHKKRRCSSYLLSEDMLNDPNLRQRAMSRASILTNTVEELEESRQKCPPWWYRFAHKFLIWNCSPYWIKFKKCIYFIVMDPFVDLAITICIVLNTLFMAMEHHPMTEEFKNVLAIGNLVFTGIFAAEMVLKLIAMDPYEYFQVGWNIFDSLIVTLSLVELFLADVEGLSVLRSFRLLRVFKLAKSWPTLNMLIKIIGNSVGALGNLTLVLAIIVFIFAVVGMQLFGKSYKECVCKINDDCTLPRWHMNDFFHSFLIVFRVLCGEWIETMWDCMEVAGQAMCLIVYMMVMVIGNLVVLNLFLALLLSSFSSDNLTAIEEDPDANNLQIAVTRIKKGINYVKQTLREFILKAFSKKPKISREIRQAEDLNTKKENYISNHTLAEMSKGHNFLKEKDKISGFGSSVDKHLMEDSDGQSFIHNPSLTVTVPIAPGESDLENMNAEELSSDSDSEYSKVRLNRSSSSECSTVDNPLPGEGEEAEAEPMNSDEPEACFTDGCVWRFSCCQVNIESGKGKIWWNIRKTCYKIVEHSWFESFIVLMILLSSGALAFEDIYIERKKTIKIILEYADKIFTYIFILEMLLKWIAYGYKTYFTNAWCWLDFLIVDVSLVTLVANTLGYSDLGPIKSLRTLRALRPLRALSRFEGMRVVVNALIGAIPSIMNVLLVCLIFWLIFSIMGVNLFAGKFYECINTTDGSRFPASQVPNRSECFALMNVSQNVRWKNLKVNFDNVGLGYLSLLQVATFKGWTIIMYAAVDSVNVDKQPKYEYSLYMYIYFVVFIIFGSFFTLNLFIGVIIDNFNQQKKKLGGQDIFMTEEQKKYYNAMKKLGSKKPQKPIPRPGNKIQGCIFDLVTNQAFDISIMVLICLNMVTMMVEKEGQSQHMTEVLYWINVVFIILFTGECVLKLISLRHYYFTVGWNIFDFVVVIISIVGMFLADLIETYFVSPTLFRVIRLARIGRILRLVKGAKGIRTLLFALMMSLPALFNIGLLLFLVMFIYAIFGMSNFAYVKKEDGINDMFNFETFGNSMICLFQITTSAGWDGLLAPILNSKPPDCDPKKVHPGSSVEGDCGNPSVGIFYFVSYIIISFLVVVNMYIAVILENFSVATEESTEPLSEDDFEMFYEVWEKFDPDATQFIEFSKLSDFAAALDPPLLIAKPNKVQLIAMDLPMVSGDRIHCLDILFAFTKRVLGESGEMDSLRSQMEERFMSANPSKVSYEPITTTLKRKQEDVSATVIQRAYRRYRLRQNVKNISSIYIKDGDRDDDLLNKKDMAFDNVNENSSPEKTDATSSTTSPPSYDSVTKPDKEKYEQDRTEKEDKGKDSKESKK
T2 sequence (Q14524 whole entry): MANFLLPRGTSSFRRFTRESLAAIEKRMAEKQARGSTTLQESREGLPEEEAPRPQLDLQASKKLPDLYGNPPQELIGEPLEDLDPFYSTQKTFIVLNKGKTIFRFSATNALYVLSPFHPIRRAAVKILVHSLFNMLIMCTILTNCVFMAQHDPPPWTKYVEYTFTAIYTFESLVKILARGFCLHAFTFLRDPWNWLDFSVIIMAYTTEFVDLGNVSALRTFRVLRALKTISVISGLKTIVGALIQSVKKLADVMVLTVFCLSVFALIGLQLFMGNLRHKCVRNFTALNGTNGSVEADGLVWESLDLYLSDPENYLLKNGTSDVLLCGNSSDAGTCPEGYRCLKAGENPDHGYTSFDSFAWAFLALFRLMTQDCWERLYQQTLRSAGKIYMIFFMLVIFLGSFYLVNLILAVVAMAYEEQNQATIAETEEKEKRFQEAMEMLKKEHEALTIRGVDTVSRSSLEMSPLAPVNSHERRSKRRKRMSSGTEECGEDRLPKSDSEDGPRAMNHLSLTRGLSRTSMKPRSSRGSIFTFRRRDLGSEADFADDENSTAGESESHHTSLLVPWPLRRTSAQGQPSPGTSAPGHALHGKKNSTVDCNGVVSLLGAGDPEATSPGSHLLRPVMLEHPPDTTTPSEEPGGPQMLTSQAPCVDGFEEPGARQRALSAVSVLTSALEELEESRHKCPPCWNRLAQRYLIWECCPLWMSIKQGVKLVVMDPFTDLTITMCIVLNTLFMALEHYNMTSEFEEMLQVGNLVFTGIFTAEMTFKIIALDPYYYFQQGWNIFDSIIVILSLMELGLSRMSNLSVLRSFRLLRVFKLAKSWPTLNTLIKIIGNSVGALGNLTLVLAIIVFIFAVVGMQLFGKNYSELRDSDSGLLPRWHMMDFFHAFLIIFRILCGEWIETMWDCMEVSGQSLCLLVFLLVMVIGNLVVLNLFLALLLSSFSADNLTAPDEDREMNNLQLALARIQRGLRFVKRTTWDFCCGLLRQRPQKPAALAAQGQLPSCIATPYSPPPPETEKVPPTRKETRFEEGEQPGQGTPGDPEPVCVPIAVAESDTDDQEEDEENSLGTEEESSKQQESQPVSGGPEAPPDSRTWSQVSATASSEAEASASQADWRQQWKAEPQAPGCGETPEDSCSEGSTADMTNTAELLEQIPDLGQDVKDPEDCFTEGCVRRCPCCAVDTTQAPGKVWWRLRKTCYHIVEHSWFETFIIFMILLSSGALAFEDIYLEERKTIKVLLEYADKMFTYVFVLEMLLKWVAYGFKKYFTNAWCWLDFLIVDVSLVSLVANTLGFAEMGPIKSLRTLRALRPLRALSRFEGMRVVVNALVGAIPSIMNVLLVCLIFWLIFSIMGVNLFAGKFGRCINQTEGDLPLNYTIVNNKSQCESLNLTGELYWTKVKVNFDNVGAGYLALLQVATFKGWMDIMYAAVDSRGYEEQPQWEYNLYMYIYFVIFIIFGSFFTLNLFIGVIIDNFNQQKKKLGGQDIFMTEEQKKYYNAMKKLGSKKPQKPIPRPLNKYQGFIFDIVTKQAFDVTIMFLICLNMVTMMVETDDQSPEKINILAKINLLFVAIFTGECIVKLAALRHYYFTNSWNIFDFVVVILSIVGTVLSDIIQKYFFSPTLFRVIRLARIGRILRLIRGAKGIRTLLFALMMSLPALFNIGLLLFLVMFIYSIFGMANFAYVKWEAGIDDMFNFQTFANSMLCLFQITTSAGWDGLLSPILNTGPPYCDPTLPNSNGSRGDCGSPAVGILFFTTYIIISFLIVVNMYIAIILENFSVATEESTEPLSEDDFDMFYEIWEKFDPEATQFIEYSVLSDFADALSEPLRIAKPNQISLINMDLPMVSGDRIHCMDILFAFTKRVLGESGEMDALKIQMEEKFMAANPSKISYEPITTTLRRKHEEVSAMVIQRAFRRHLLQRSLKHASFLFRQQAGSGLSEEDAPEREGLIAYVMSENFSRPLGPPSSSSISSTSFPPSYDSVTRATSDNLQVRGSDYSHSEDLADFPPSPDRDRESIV

For the compound `CC(C)N1C(=O)C(NC(=O)C(Cc2ccccc2F)NC(=O)c2ccc(F)cc2C(F)(F)F)CCc2cc(Cl)ccc21` [N—[(R)-1-(R)-7-chloro-1-isopropyl-2-oxo-2,3,4,5-tetrahydro-1H-benzo[b]azepine-3-ylcarbamoyl)-2-(2-fluorophenyl)-ethyl]-4-fluoro-2-trifluoromethyl-benzamide], the IC50 on hNav1.7 [1] was 30 nM; at hNav1.5 [2], 4300 nM; at hNav1.8 it was 300 nM; at hNav1.7 [3] it was 550 nM; at hNav1.5 [4], 180 nM.
Consider `NCC1(CC(=O)O)CCCCC1` [gabapentin], for which, in data set [5], the reduction of pain is not above 50% and the “share of patients with that pain reduction” value is “about 40%”.
